Consider 1 molecule from patent US20170049718A1, “DRUG FOR TREATMENT OF TINNITUS PATIENTS” (KYORIN PHARMACEUTICAL CO., LTD., priority 2014, published 2017).

The target in experiment [1] is α9/α10 nicotinic acetylcholine receptors (Rattus norvegicus, UniProt P43144+Q9JLB5). The settings on record: Plazas, et al., Eur J Pharmacol., 2007; cited from earlier work.
For another experiment, the system named is patients having tinnitus. Briefly: 24-week placebo controlled, randomized, double-blind comparative trial, TRSw score. The format is in vivo, human. Details: key to Change in TRSw score: LS mean change in TRSw score from week 0 to week 24; <0 = better. The following applies: for Change in TRSw score, Neramexane-placebo / Change in TRSw score: 24 weeks; for Change in TRSw score: 50 mg/day. An excerpt: A therapeutic effect can be evaluated by physician inquiry using a questionnaire form such as TRSw (Tinnitus Rating Scale One-Week Version) (Acta Otolaryngol., 2013, 133(5), 491-498).
The efficacy of neramexane mesylate on patients with tinnitus associated with age-related hearing loss, tinnitus associated with auditory disorder in the range of the human voice at an auditory threshold value exceeding 25 dB, tinnitus that includes two or more different tinnitus sounds or tinnitus that includes a tinnitus sound that is not high-frequency alone, was evaluated in a 24-week, placebo controlled, randomized, double-blind comparative trial.
The film coated tablets containing 12.5 mg neramexane mesylate or placebo tablets were administered for 24 weeks to patients having tinnitus. The dosage was started from 12.5 mg/day, gradually increasing the dose to 50 mg/day over 4 weeks, and maintaining the same dose thereafter.
The therapeutic effect of neramexane mesylate for the patients was evaluated using the TRSw score. Statistical analysis was performed using a mixed-effect model repeated measure (MMRM) taking into consideration the covariance structure of error for the patient, with the change in TRSw score from before administration of neramexane mesylate tablets or placebo tablets (0 weeks) to each evaluation time point as the response variable, and with the drug-administered group, evaluation time point, interaction between drug-administered group and evaluation time point, 0-week TRSw score, gender and body weight as […]. The numerical values in the table represent least mean squares for the change in TRSw score at 24 weeks after administration. A change in score of less than 0 indicates a higher therapeutic effect.

For the next experiment, the target named is T1, 5-HT3 receptors (Homo sapiens, UniProt P46098).
T1 sequence (P46098 24-478): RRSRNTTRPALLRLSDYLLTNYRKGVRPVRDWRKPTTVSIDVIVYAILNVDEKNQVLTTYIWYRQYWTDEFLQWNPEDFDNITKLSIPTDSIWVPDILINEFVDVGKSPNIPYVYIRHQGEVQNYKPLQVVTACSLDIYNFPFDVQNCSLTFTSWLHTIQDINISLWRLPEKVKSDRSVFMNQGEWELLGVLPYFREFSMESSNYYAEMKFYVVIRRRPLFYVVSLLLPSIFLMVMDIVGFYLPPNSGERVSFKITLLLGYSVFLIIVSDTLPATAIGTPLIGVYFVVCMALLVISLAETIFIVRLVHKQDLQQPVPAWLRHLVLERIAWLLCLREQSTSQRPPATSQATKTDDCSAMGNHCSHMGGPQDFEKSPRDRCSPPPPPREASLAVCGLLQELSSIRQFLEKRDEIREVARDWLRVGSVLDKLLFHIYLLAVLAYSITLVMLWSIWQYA
The settings on record: cited from earlier work.

Where [2] appears, read: Tinnitus associated with age-related hearing loss at hearing threshold of 25 dB or more in both ears in 4000 Hz and 8000 Hz.
The mark [3] stands for this setting: Tinnitus associated with age-related hearing loss at hearing threshold of 25 dB or more in both ears in 8000 Hz.
The mark [4] stands for this setting: Tinnitus associated with age-related hearing loss, exhibiting auditory disorder (>25 dB) in the range of the human voice.
Setting [5] is: Tinnitus associated with auditory disorder (>25 dB) in the range of the human voice.
Setting [6] is: Tinnitus including tinnitus sound not of high-frequency alone.
Where [7] appears, read: Tinnitus including two or more different tinnitus sounds, associated with age-related hearing loss, exhibiting auditory disorder (>25 dB) in the range of the human voice.
[8] abbreviates: Tinnitus including two or more different tinnitus sounds, associated with age-related hearing loss.
The mark [9] stands for this setting: Tinnitus including two or more different tinnitus sounds.

Sequence of α9/α10 nicotinic acetylcholine receptors (P43144 26-479): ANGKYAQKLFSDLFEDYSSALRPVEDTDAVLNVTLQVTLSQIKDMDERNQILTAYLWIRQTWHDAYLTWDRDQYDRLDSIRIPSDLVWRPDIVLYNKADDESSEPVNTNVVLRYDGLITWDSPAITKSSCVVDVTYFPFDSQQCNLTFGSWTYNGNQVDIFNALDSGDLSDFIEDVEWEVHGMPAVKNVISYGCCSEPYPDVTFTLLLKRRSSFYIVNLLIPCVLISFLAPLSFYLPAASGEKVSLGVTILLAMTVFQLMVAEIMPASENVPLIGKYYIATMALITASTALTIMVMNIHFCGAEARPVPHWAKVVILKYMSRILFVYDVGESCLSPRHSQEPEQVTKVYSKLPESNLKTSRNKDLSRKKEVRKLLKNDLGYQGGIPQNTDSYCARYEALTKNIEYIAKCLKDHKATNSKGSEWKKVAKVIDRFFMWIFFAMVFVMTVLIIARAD
Sequence of α9/α10 nicotinic acetylcholine receptors (Q9JLB5 25-447): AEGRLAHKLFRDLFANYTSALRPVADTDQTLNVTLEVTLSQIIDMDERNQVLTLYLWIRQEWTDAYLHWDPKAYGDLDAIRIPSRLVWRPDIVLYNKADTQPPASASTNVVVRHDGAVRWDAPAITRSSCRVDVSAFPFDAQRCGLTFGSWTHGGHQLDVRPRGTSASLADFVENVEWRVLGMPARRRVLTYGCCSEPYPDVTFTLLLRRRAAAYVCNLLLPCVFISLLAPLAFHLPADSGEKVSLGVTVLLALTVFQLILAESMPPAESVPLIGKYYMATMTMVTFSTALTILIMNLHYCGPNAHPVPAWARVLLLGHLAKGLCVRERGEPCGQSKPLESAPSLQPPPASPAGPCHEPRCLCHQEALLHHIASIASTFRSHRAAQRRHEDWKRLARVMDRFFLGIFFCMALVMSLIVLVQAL

As for `CC1(C)CC(C)(C)CC(C)(N)C1` [Neramexane, 1-amino-1,3,3,5,5-pentamethylcyclohexane], in experiment [1], the “inhibiting activity on α9/α10 nicotinic acetylcholine receptors” value is “exhibits inhibiting activity”. The “Change in TRSw score, Neramexane-placebo” value with patients having tinnitus (setting [2]) is listed as −2.0; with patients having tinnitus (setting [3]) it was −1.5; in the experiment with patients having tinnitus (setting [4]), −2.0; in the experiment on patients having tinnitus (Tinnitus associated with age-related hearing loss), −0.5; in the experiment with patients having tinnitus (setting [5]) it was −0.6; with patients having tinnitus (setting [6]), −0.7. Further, the “Change in TRSw score, Neramexane-placebo” value in the experiment on patients having tinnitus (setting [7]) is on record as −4.7; in the experiment on patients having tinnitus (setting [8]), −2.7; in the experiment on patients having tinnitus (setting [9]), −0.5. Further, the “Change in TRSw score” value with patients having tinnitus (setting [2]) was −2.5; in the experiment on patients having tinnitus (setting [3]) it was −2.2; in the experiment on patients having tinnitus (setting [4]) it was −3.6; in the experiment on patients having tinnitus (Tinnitus associated with age-related hearing loss, least mean squares), −2.5; in the experiment with patients having tinnitus (setting [5]), −1.7; in the experiment with patients having tinnitus (setting [6]), −2.0. Moreover, the “Change in TRSw score” value is listed as −5.0 in the experiment on patients having tinnitus (setting [7]), −4.1 in the experiment on patients having tinnitus (setting [8]) and −2.2 with patients having tinnitus (setting [9]). The “therapeutic effect compared to placebo” value in the experiment on patients having tinnitus (combined groups: age-related hearing loss with auditory disorder >25 dB, two or more sounds with age-related hearing loss, all three criteria) is reported as “unexpectedly excellent therapeutic effect”; with patients having tinnitus (single-criterion groups: age-related hearing loss, auditory disorder >25 dB in range of human voice, two or more tinnitus sounds, sound not high-frequency alone), “superior therapeutic effect”. The “inhibiting activity on 5-HT3 receptors” value on 5-HT3 receptors is on record as “exhibits inhibiting activity”.
